Reference: patent publication US7511041B2, “Fused azole-pyrimidine derivatives” (Bayer Pharmaceuticals Corporation, priority 2002, dated 2009)
Where two headings read alike, the source gives them in different places.

Columns and labels:
[1] = target: T1, Recombinant human PI3Kγ (full length human PI3K p110γ) (Homo sapiens, UniProt P48736); test: Kinase assay of PI3Kγ (solid-phase lipid kinase assay); type: biochemical
T1 construct: full length human PI3K p110γ fused with a His6-tag at the C-terminus; His6 (C); purchased ALEXIS BIOCHEMICALS #201-055-C010; host or cells: S. frugiperda 9 insect cells

[2] = in vitro PI3K-γ inhibitory activity, class symbols, read-out: in vitro PI3K-gamma
[3] = Table 1, isozyme not given, read-out: in vitro
[4] = in vitro PI3K-γ inhibitory activity, class symbols A-D, read-out: in vitro PI3K-gamma

T1 sequence (P48736 whole entry, the tested form may be a part): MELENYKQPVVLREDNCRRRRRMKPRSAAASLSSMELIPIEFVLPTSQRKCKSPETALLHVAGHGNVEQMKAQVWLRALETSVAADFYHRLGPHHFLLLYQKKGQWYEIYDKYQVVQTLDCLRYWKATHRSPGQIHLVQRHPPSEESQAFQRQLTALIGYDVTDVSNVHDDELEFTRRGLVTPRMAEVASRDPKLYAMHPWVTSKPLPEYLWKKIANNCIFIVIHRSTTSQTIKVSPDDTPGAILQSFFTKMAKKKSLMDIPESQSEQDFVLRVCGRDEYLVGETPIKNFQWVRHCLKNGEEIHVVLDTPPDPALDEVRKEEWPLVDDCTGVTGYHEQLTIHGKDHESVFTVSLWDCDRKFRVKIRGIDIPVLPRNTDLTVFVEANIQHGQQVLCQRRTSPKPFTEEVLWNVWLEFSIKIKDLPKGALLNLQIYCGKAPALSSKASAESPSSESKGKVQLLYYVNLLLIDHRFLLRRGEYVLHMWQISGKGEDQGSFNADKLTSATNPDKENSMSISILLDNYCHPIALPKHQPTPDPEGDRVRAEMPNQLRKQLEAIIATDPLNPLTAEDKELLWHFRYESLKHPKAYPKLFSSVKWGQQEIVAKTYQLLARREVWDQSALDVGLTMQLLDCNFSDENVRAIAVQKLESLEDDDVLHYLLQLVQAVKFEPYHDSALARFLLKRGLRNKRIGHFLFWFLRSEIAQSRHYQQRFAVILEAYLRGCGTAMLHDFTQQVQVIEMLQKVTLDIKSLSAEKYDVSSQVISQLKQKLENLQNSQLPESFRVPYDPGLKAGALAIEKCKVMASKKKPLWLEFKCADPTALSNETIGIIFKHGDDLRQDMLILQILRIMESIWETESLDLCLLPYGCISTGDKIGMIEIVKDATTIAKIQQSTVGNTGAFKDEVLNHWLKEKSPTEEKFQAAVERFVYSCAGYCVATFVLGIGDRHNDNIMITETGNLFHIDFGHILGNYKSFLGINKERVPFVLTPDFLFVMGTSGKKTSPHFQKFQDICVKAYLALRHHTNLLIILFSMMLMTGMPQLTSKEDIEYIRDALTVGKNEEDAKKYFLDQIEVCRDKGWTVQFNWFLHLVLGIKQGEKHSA

Row | Compound | IC50 [1, 2] [nM] | melting point | IC50 [1, 3] [nM] | IC50 [1, 4] [nM] | IC50 ([1]; activity class of IC50, read-out: In vitro PI3K-γ inhibitory activity) [nM]
1 | Cl.O=C(NC1=Nc2ccc(-c3ccco3)cc2C2=NCCN12)c1cccnc1 [Example 2-97] | 100 to 500 | 298 to 299 °C | – | – | –
2 | O/C(=C\C1=Nc2ccccc2C2=NCCN12)c1cccc(Cl)c1 [Example 1-171] | – | 224 to 227 °C | > 2000 | – | –
3 | COc1ccc2c(c1)N=C(NC(=O)c1ccc(N)nc1)N1CCN=C21 [Example 2-23] | < 100 | 279 to 282 °C | – | – | –
4 | COc1cccc2c1N=C(/C=C(\O)c1cccnc1)N1CCN=C21 [Example 1-68] | – | 275 °C | < 100 | – | –
5 | Cl.O=C(O)CCCCc1ccc2c(n1)N=C(/C=C(\O)c1cccnc1)N1CCN=C21 [Example 1-206] | – | 267 °C | < 100 | – | –
6 | Cl.O=C(NC1=Nc2cc(C(F)(F)F)ccc2C2=NCCN12)c1ccc2[nH]cnc2c1 [Example 2-37] | < 100 | 288 °C | – | – | –
7 | COc1c(O)ccc2c1N=C(/C=C(\O)c1cccnc1)N1CCN=C21.Cl [Example 1-9] | – | 245 °C (dec.) | < 100 | – | –
8 | COc1cccc2c1N=C(NC(=O)c1cc3cccnc3nc1C)N1CCN=C21 [Example 2-126] | < 100 | 183 to 184 °C | – | – | –
9 | O=C(NC1=Nc2ccc(Br)cc2C2=NCCN12)c1cccs1 [Example 2-351] | – | 232 °C | – | > 2000 | –
10 | O/C(=C\C1=Nc2c(OCC3CC3)cccc2C2=NCCN12)c1cccnc1 [Example 1-88] | – | 203 °C (dec.) | 100 to 500 | – | –
11 | COc1ccc2c(c1)C1=NCCN1C(NC(=O)c1ccc3[nH]cnc3c1)=N2.Cl [Example 2-94] | < 100 | 288 °C | – | – | –
12 | CN1CCN(c2ccc3c(c2)N=C(/C=C(\O)c2cccnc2)N2CCN=C32)CC1.Cl [Example 1-104] | – | 288 °C | 100 to 500 | – | –
13 | O=C(NC1=Nc2ccccc2C2=NCCN12)c1ccccn1 [Example 2-276] | – | 204 to 205 °C | – | 500 to 2000 | –
14 | COc1cc2c(cc1OC)C1=NCCN1C(NC(=O)c1ccc(N)nc1)=N2.Cl [Example 2-56] | 100 to 500 | 256 °C | – | – | –
15 | COc1cncc(C(=O)NC2=Nc3ccccc3C3=NCCN23)c1 [Example 2-140] | 100 to 500 | 219 °C (dec.) | – | – | –
16 | O=C(NC1=Nc2ccccc2C2=NCCN12)c1cnc2ccccc2c1 [Example 2-316] | – | 263 to 264 °C | – | > 2000 | –
17 | COc1ccc2c(c1Br)N=C(NC(=O)c1cccnc1)N1CCN=C21 [Example 2-65] | < 100 | 264 °C | – | – | –
18 | Cl.O=C(NC1=Nc2cc(C(F)(F)F)ccc2C2=NCCN12)c1cncc(O)c1 [Example 2-35] | < 100 | 237 °C (dec.) | – | – | –
19 | Cl.O/C(=C\C1=Nc2c(O)cccc2C2=NCCN12)c1cccnc1 [Example 1-83] | – | > 250 °C | 100 to 500 | – | –
20 | O=C(NC1=Nc2ccccc2C2=NCCN12)c1cnc2[nH]cnc2c1 [Example 2-172] | < 100 | > 300 °C | – | – | –
21 | CC(=O)Nc1ccc(/C(O)=C/C2=Nc3cc(CN4CCOCC4)ccc3C3=NCCN23)cn1 [Example 1-113] | – | 245 °C | 100 to 500 | – | –
22 | O=C(NC1=Nc2ccc(O)cc2C2=NCCN12)c1ccc2[nH]cnc2c1 [Example 2-212] | – | 296 °C (dec.) | – | 100 to 500 | –
23 | O=C(NC1=Nc2ccccc2C2=NCCN12)C1CC1 [Example 2-334] | – | 164 to 165 °C | – | > 2000 | –
24 | Cc1c(C(=O)NC2=Nc3ccccc3C3=NCCN23)cnc(N)c1C.Cl [Example 2-161] | 100 to 500 | 298 °C (dec.) | – | – | –

Row | Compound | IC50 [1, 2] [nM] | melting point | IC50 [1, 3] [nM] | IC50 [1, 4] [nM] | IC50 ([1]; activity class of IC50, read-out: In vitro PI3K-γ inhibitory activity) [nM]
25 | Cc1ccc2c(c1)N=C(NC(=O)c1cccnc1)N1CCN=C21 [Example 2-27] | < 100 | 207 °C | – | – | –
26 | CCC(=O)NC1=Nc2cc(OC)c(OC)cc2C2=NCCN12 [Example 2-344] | – | 224 to 225 °C | – | > 2000 | –
27 | CS(=O)(=O)Nc1cncc(C(=O)NC2=Nc3ccccc3C3=NCCN23)c1 [Example 2-143] | < 100 | 265 to 269 °C | – | – | –
28 | C[C@@H]1CN=C2c3ccccc3N=C(NC(=O)c3cccnc3)N21.Cl [Example 2-366] | – | 270 °C (dec.) | – | > 2000 | –
29 | O/C(=C\C1=Nc2cnccc2C2=NCCN12)c1cccnc1 [Example 1-164] | – | 230 °C | 100 to 500 | – | –
30 | COc1c(OCCO)ccc2c1N=C(/C=C(\O)c1cccnc1)N1CCN=C21 [Example 1-16] | – | 264 to 265 °C | < 100 | – | –
31 | Nc1ccc(C(=O)NC2=Nc3ccccc3C3=NCCN23)cc1.O=C(O)C(F)(F)F [Example 2-163] | 100 to 500 | 232 °C (dec.) | – | – | –
32 | O=C(NC1=Nc2ccc(N3CCOCC3)cc2C2=NCCN12)c1cccnc1 [Example 2-347] | – | 244 °C | – | > 2000 | –
33 | Cl.O=C(NC1=Nc2ccccc2C2=NCCN12)c1ccco1 [Example 2-299] | – | 311 °C (dec.) | – | 500 to 2000 | –
34 | COc1cc2c(c(OC)c1C)N=C(/C=C(\O)c1ccc(NC(C)=O)nc1)N1CCN=C21 [Example 1-64] | – | > 285 °C | < 100 | – | –
35 | O/C(=C\C1=Nc2cc(Cl)ccc2C2=NCCN12)c1cccnc1 [Example 1-116] | – | 226 °C | 100 to 500 | – | –
36 | O/C(=C\C1=Nc2c(OCCN3CCOCC3)cccc2C2=NCCN12)c1cccnc1 [Example 1-84] | – | 195 to 196 °C | 100 to 500 | – | –
37 | O=C(NC1=Nc2ccccc2C2=NCCN12)c1ccc(-n2cccn2)cc1 [Example 2-270] | – | 209 to 211 °C | – | > 2000 | –
38 | COc1cc2c(cc1OC)C1=NCCN1C(/C=C(\O)c1cccc(Cl)c1)=N2 [Example 1-186] | – | 257 to 259 °C | > 2000 | – | –
39 | Cl.O=C(NC1=Nc2ccc(Br)cc2C2=NCCN12)c1cccs1 [Example 2-352] | – | 275 °C | – | 500 to 2000 | –
40 | COc1ccc2c(c1)C1=NCCN1C(NC(=O)c1cccnc1)=N2.Cl [Example 2-93] | 100 to 500 | > 300 °C | – | – | –
41 | CN(CCO)c1ccc2c(c1)N=C(/C=C(\O)c1ccc3[nH]cnc3c1)N1CCN=C21.Cl [Example 1-110] | – | 231 °C (dec.) | 100 to 500 | – | –
42 | CC(C)(C)OC(=O)Nc1cccc(C(=O)NC2=Nc3ccccc3C3=NCCN23)c1 [Example 2-265] | – | 280 °C (dec.) | – | > 2000 | –
43 | O=C(NC1=Nc2c(cccc2C(F)(F)F)C2=NCCN12)c1ccc2[nH]cnc2c1 [Example 2-112] | < 100 | 286 °C | – | – | –
44 | O=C(NC1=Nc2ccccc2C2=NCCN12)c1cccnc1Cl [Example 2-134] | < 100 | 198 to 199 °C | – | – | –
45 | O/C(=C\c1nc2ccccc2c2nccn12)c1cccs1 [Example 3-1, (Z)-2-Imidazo[1,2-c]quinazolin-5-yl-1-(2-thienyl)ethenol] | – | 128 °C | – | – | > 2000
46 | COc1cc2c(cc1OC)C1=NCCN1C(NC(C)=O)=N2 [Example 2-343] | – | 240 to 241 °C | – | > 2000 | –
47 | Cl.O=C(NC1=Nc2ccccc2C2=NCCN12)c1cccs1 [Example 2-179] | < 100 | 310 °C (dec.) | – | – | –
48 | COc1ccc(C(=O)NC2=Nc3ccccc3C3=NCCN23)c(OC)n1.Cl [Example 2-287] | – | 210 °C (dec.) | – | 500 to 2000 | –
